According to article PMC6025957, “Epidermal LysM receptor ensures robust symbiotic signalling in Lotus japonicus” (eLife, 2018):

Assays:
[1] = target: T1, AtCERK1 ectodomain (Arabidopsis thaliana, UniProt A8R7E6); test: biolayer interferometry, steady-state; assay type: binding; conditions: labelled compound; biotinylated (GlcNAc)5 immobilised on streptavidin sensor, protein in solution; PBS pH 7.4, 500 mM NaCl, 0.01% Tween20
T1 construct: gene CERK1; ectodomain only (borders from reported crystal structure), gp67 signal peptide, C-terminal His6, Sf9 insect cells, glycosylated, ~35 kDa
T1 sequence (A8R7E6 24-232 limits assumed): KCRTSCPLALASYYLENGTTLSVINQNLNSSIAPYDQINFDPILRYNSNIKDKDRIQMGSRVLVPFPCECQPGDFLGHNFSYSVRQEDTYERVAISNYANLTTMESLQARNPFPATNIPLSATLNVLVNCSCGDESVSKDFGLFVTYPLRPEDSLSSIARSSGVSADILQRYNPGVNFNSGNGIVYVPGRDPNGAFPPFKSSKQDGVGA

[2] = target: T2, NFR1 kinase domain (Lotus japonicus, UniProt Q70KR7); test: radioactive kinase assay, autoradiogram; assay type: biochemical; conditions: labelled compound ([gamma-32P]ATP); 100 µM ATP, MnCl2, MgCl2, HEPES pH 7, room temperature; NFR5 kinase domain as acceptor
T2 construct: intracellular kinase domain, pET-32 Ek/LIC, E. coli Rosetta 2, tag cleaved with TEV
T2 sequence (Q70KR7 254-623 limits assumed): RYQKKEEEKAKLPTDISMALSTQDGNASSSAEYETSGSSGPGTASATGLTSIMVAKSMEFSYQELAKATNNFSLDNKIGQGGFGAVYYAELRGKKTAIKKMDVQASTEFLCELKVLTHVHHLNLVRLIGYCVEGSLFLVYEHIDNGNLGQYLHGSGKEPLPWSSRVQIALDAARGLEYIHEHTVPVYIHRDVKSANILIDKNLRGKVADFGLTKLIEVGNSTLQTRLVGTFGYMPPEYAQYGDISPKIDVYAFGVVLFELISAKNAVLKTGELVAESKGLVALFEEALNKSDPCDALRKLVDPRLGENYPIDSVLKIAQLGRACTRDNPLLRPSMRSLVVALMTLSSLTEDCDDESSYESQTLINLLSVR

[3] = target: T3, NFRe kinase domain (Lotus japonicus, UniProt A8WHB6); test: radioactive kinase assay, autoradiogram; assay type: biochemical; conditions: labelled compound ([gamma-32P]ATP); 100 µM ATP, MnCl2, MgCl2, HEPES pH 7, room temperature; autophosphorylation, myelin basic protein or NFR5 kinase domain as acceptor
T3 construct: gene nfr1c
T3 sequence (A8WHB6 entry or part of it): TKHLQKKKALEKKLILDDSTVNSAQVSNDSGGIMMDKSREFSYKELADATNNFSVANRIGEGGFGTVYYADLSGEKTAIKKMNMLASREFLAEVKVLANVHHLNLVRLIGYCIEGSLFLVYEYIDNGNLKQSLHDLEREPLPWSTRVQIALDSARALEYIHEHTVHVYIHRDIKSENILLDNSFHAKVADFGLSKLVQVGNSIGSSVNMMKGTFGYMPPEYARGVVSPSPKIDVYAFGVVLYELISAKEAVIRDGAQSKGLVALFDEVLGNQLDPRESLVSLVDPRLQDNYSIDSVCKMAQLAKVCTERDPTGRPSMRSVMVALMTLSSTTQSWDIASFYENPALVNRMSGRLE

Structure (SMILES) | Kd [1] | radioactive kinase assay, autoradiogram [2] | radioactive kinase assay, autoradiogram [3]
CC(=O)N[C@@H]1[C@@H](O)[C@H](O[C@@H]2O[C@H](CO)[C@@H](O[C@@H]3O[C@H](CO)[C@@H](O[C@@H]4O[C@H](CO)[C@@H](O[C@@H]5O[C@H](CO)[C@@H](O)[C@H](O)[C@H]5NC(C)=O)[C@H](O)[C@H]4NC(C)=O)[C@H](O)[C@H]3NC(C)=O)[C@H](O)[C@H]2NC(C)=O)[C@@H](CO)O[C@H]1O [CO5] | 59 µM |  | 
Nc1ncnc2c1ncn2[C@@H]1O[C@H](COP(=O)(O)OP(=O)(O)OP(=O)(O)O)[C@@H](O)[C@H]1O [ATP] |  | NFR1 kinase serves as positive control for NFR5 kinase transphosphorylation | NFRe kinase transphosphorylated the myelin basic protein (MBP) substrate and autophosphorylated
